Values joined by “and” are separate entries in the source; they are usually repeats but may differ in a detail not shown here. Equal values may be shown once.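 Cells were grown in 96-well plates and exposed to each compound for 48 hours at five concentrations; endpoints were interpolated linearly between bracketing concentrations, or set to the highest concentration if not reached. GI50: concentration for 50% inhibition of growth. At the TGI there is no net growth.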
Key:
Assay in all cases: growth of human tumour cells (NCI), 48 h
BT-549 breast = system: BT-549 breast
K-562 leukemia = system: K-562 leukemia
KM12 colon = system: KM12 colon
LOX IMVI melanoma = system: LOX IMVI melanoma
OVCAR-4 ovarian = system: OVCAR-4 ovarian
RPMI-8226 leukemia = system: RPMI-8226 leukemia
SF-295 CNS = system: SF-295 CNS
SK-MEL-28 melanoma = system: SK-MEL-28 melanoma
SNB-19 CNS = system: SNB-19 CNS
SR leukemia = system: SR leukemia

Row | Compound | GI50 (BT-549 breast) | TGI (BT-549 breast) [µM] | GI50 (K-562 leukemia) | TGI (K-562 leukemia) [µM] | GI50 (KM12 colon) | TGI (KM12 colon) | GI50 (LOX IMVI melanoma) | TGI (LOX IMVI melanoma) [µM] | GI50 (OVCAR-4 ovarian) | TGI (OVCAR-4 ovarian) | GI50 (RPMI-8226 leukemia) | TGI (RPMI-8226 leukemia) [µM] | GI50 (SF-295 CNS) | TGI (SF-295 CNS) | GI50 (SK-MEL-28 melanoma) | TGI (SK-MEL-28 melanoma) | GI50 (SNB-19 CNS) | TGI (SNB-19 CNS) | GI50 (SR leukemia) | TGI (SR leukemia) [µM]
1 | CCOC(=O)C1=C(N)Oc2c(sc3c(C)cccc23)C1c1ccc(Cl)cc1 (configuration not stated) | 3.3 µM | 15.8 | 1.32 µM | > 100 | 1.62 µM | 13.3 µM | 3.03 µM | 13.7 | 6.92 µM | 21 µM | 3.26 µM | 13.1 | 1.89 µM | 4.26 µM | 10.3 µM | 23.6 µM | 3.71 µM | 16 µM | 1.49 µM | 18
2 | Fc1ccc(CNc2c3ccccc3nc3ccccc23)cc1 | 4.66 µM | 18 | 2.49 µM | 16.2 | 3.27 µM | 13.6 µM | 1.55 µM | 3.07 | 2.05 µM | 7.34 µM | 2.03 µM | 5.79 | 2.9 µM | 11.1 µM | 3.27 µM | 11.6 µM | 3.66 µM | 15.4 µM | 2.2 µM | 7.75
3 | O=C(c1ccccn1)c1nnn2ccccc12 | – | > 100 | – | > 100 | – | > 100 µM | – | > 100 | – | > 100 µM | – | > 100 | – | > 100 µM | – | > 100 µM | – | > 100 µM | – | > 100
4 | COc1ccc2nc3cccc([N+](=O)[O-])c3c(NCCN(CCO)CCO)c2c1 | 0.0415 µM | 0.14 | 0.013 µM | 0.0487 | 0.0367 µM | 0.202 µM | 0.0379 µM | 0.18 | 0.0222 µM | 0.0685 µM | 0.0155 µM | 0.102 | 0.0304 µM | 0.337 µM | 0.0444 µM | 0.414 µM | 0.129 µM | 1.45 µM | 0.017 µM | 0.647
5 | C/C(=N\Nc1ccc2ccccc2n1)c1ccccc1O | – | > 100 | – | > 100 | – | > 100 µM | – | > 100 | – | > 100 µM | – | > 100 | – | 37.2 µM | – | > 100 µM | – | > 100 µM | – | 8.16
6 | COc1c(OC(C)=O)c(OC(C)=O)cc2c1-c1ccc(OC)c(=O)cc1C(NC(C)=O)CC2 (configuration not stated) | – | > 100 | – | > 100 | – | 0.555 µM | – | > 100 | – | > 100 µM | – | > 100 | – | 0.564 µM | – | > 100 µM | – | > 95.5 µM | – | > 100
7 | CCCN(CCC)c1ccc(C=O)cc1 | 35.4 µM | > 100 | 25.7 µM | > 100 | > 70.8 µM | > 100 µM | 59.6 µM | > 100 | 26.5 µM | > 100 µM | 54.5 µM | > 100 | 34.2 µM | > 100 µM | > 100 µM | > 100 µM | 62 µM | > 100 µM | 33.7 µM | > 100
8 | O=C(/C=C/C=C/c1ccccc1)c1ccc(Nc2nc(Nc3ccccc3)nc(Nc3ccccc3)n2)cc1 | > 100 µM | > 100 | 7.73 µM | 37.2 | 57.9 µM | > 100 µM | > 100 µM | > 100 | 88.1 µM | > 100 µM | 4.12 µM | > 100 | 32.5 µM | > 100 µM | 46.9 µM | > 100 µM | > 100 µM | > 100 µM | 9.45 µM | 92.9
9 | Cn1cc(C2=C(c3c4n(c5ccccc35)CC(CN)C4)C(=O)NC2=O)c2ccccc21 (configuration not stated) | 4.46 µM | 10.5 | 1.64 µM | 17.9 | 3.46 µM | 9.22 µM | 2.98 µM | 6.92 | 2.33 µM | 10.6 µM | 4.57 µM | 11.1 | 3.54 µM | 8.56 µM | 3.37 µM | 7.01 µM | 5.39 µM | 15.3 µM | 1.74 µM | 13.8
10 | O=C(O)CN(CC(=O)O)Cc1cc2c(cc1O)Oc1cc(O)c(CN(CC(=O)O)CC(=O)O)cc1C21OC(=O)c2ccccc21 | – | > 100 | – | > 100 | – | > 100 µM | – | > 100 | – | > 100 µM | – | > 100 | – | > 100 µM | – | > 100 µM | – | > 100 µM | – | > 100
11 | O=C1Nc2ccccc2C1(c1ccc(O)c(F)c1)c1ccc(O)c(F)c1 | 0.166 µM | 0.593 | 11.6 µM | > 100 | 3.07 µM | 22.9 µM | 0.53 µM | 15.8 | 0.237 µM | 0.659 µM | 15.7 µM | 52.6 | 12.5 µM | 28.5 µM | 14.4 µM | 52 µM | 19.1 µM | 69 µM | 3.83 µM | > 52.3
12 | CS(=O)(=O)N1CCN(Cc2cc3nc(-c4cccc5[nH]ncc45)nc(N4CCOCC4)c3s2)CC1 | 0.271 µM and 0.231 µM | > 100 | 3.91 µM and > 2.17 µM | > 100 | 1.36 µM and 0.754 µM | > 100 µM | 0.456 µM and 0.32 µM | > 100 | 2.77 µM and 0.894 µM | > 100 µM | 2 µM and 1.94 µM | > 22.2 | 0.262 µM and 0.318 µM | 3.11 µM and 3.62 µM | 0.345 µM and 0.133 µM | – | 2.91 µM and 0.896 µM | > 100 µM | 2.46 µM and 2.02 µM | > 100
13 | O=S(=O)(O)c1ccc(Cl)cc1.[Cd] | 1.94 µM | 3.9 | 37.5 µM | > 100 | 73.4 µM | > 100 µM | > 100 µM | > 100 | 51.9 µM | > 100 µM | 32.1 µM | > 100 | > 100 µM | > 100 µM | > 100 µM | > 100 µM | > 100 µM | > 100 µM | 22.8 µM | > 100
14 | COc1ccc2c(CC(=O)O)cc(=O)oc2c1 | – | > 100 | – | > 100 | – | > 100 µM | – | > 100 | – | > 100 µM | – | > 100 | – | > 100 µM | – | > 100 µM | – | > 100 µM | – | > 100
15 | NC(=O)c1nnn(Cc2cc(Cl)c(C(=O)c3ccc(Cl)cc3)c(Cl)c2)c1N | – | > 52.4 | 2.19 µM | > 70.2 | > 9.09 µM | > 9.09 µM and 35 µM | > 9.09 µM | > 47.2 | > 9.09 µM | > 9.09 µM and 39.1 µM | > 9.09 µM | > 70.6 | – | > 9.09 µM and 34 µM | > 9.09 µM | > 9.09 µM and 44.6 µM | > 9.09 µM | > 9.09 µM and 30.5 µM | 21.7 µM | > 100
